Source: US6127136A, “Detection of dioxin-like compounds by detection of transformed Ah receptor/ARNT complex” (Paracelsian, Inc., priority 1996, dated 2000)
“And” between values parts separate entries of the source, which are not always exact repeats. Identical values can stand only once.

Target: T1, transformed Ah receptor (Cavia porcellus, UniProt Q6J287)
T1 construct: TCDD-transformed receptor captured as heterodimer on DRE-oligonucleotide gel; recombinant ARNT added in some protocols
Experiment: mini-Ah immunoassay (DRE affinity gel, dot-blot spot density), with or without added recombinant ARNT
Assay type: biochemical, guinea pig (male Hartley, hepatic cytosol)
Method: Male Hartley guinea pigs weighing 300-350 g were obtained from Cornell Research Animal Resources, Cornell University, Ithaca, N.Y. Guinea pigs were anaesthetized and killed with carbon dioxide. Livers were perfused in situ with 100 mL ice-cold perfusion buffer, excised, trimmed of connective tissue, poorly perfused liver and gall bladder and weighed. The liver was minced and five mL of ice-cold HEDG per gram liver were added and the whole homogenized in a 50 mL homogenizer with teflon pestle using at 200 rpm for a total of seven strokes. Crude homogenate was centrifuged at 12,500 RPM in 50 mL tubes in a JA17 rotor in a Beckman J2-MI preparative centifuge at 4 degrees C for 20 minutes.
Procedure for the mini-Ah Immuno Assay
Preparation of Buffers: 155 uM TCDD stock was prepared by dissolving 1 mg 2,3,7,8-tetrachloro-dibenzo-p-dioxin (Cambridge Isotope Labs) in 20 mL DMSO (dimethylsulfoxide) overnight. 10 uM working dilution of TCDD was prepared by diluting 0.129 mL of the stock with 1.871 mL DMSO. 4M NaCl/HEDG was prepared by adding 116.88 g sodium chloride to 300 mL HEDG and adjusting the volume to 500 mL with HEDG. 0.3 M NaCl/HEDG was prepared by diluting 1.5 mL 4 M NaCl/HEDG to 20 mL with HEDG 0.6 M NaCl/HEDG was prepared by diluting 3.0 mL 4 M NaCl/HEDG to 20 mL with HEDG TBST was prepared by dissolving 1.18 g Tris-base, 6.35 g Tris-HCl, 8.76 g NaCL, and 2 mL Tween 20 in 800 mL water, adjusting volume to 1000 mL. Blocker was prepared by dissolving 10 g non-fat dry milk (Carnation) in 200 mL TBST. AP development buffer was prepared by dissolving 11 g Tris-base, 1.6 g Tris-HCl, 5.84 g Sodium Chloride, 10.2 g Magnesium Chloride hexahydrate, in 800 mL water and adjusting the volume to 1000 mL. BCIP stock was prepared by dissolving 100 mg BCIP (5-Bromo-4-Chloro-3-Indolyl Phosphate) in 2 mL N,N-Dimethylformamide, aliquoting into 66 uL portions, and freezing at -20 C until use. NBT stock was prepared by dissolving 250 mg NBT (Nitro Blue Tetrazolium) in 25 mL water, aliquoting into 660 uL proportions, and storing at -20 C until use. BCIP/NBT developer was prepared immediately before use by mixing one 66 uL aliquot of BCIP and one 660 uL aliquot of NBT in 20 mL AP development buffer.
For a typical mini-Ah immunoassay utilizing 12 samples, 5 mL of Transformed Ah Receptor Affinity Gel slurry described above was pipeted into a 50 mL conical tube. The slurry was washed with 40 mL HEDG and centifuged at 1000 g for 5 min, the supernatant withdrawn and discarded, the pellet washed with 40 mL HEDG, and centrifuged again. After the second centrifugation all but 5 mL of supernatant was withdrawn and the gel thus resuspended in the original volume. 10 mL guinea pig hepatic cytosol was thawed. The thawed cytosol was pooled and then divided into two 5 mL groups and treated with either 5 uL DMSO or 5 uL 10 uM TCDD in DMSO.
Assembly of transformation mixture:In the preferred embodiment of the mini-Ah immunoassay, each sample was composed of one 1.5 mL microfuge tube with the following sequential additions: 90 uL 4 M NaCl/HEDG, 400 uL Transformed Ah Receptor Affinity Gel slurry and 800 uL cytosol (treated with DMSO or TCDD as described above). The three components described above are the minimum components added at that step of the mini-Ah immunoassay. Any additional materials, such as ARNT, anti-ARNT and anti-Rabbit/alkaline phosphatase conjugate, were sometimes also added at this time as described in the specific examples. After assembly of the samples, the tubes were capped and the samples incubated at room temperature for 2 hours with gentle rocking to allow transformation of the Ah receptor to take place, interaction of transformed Ah receptor and ARNT, and binding of the transformed Ah receptor as a heteromer to the DRE oligonucleotide contained on the Transformed Ah Receptor Affinity Gel.
Isolation transformed Ah receptor: After the 2 hour incubation the mixtures were pipetted into the empty column barrels and allowed to drain. […]

T1 sequence (Q6J287 10-846): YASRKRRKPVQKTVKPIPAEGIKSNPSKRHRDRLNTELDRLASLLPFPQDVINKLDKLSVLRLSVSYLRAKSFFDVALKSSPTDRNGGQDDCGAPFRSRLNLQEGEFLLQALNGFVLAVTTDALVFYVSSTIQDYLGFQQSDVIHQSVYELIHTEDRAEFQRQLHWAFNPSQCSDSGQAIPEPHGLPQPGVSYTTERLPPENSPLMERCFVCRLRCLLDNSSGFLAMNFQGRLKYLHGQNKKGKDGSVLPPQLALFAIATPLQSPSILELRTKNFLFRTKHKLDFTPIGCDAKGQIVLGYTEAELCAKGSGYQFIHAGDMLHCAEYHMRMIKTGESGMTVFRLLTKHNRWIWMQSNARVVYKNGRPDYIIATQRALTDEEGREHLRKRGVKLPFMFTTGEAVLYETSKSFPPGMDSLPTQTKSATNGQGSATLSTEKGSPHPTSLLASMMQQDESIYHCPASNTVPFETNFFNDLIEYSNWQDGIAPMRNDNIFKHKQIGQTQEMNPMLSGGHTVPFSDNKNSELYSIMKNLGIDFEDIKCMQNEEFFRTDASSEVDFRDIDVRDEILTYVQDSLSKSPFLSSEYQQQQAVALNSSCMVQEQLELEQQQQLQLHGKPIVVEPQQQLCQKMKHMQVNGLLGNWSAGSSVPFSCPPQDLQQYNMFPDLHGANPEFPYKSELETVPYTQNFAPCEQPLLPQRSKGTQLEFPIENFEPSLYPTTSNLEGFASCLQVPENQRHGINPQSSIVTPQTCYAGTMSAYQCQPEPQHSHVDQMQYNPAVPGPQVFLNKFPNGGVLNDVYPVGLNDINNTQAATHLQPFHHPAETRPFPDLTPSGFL
T1 sequence (Q0WXX3 1-790 partner): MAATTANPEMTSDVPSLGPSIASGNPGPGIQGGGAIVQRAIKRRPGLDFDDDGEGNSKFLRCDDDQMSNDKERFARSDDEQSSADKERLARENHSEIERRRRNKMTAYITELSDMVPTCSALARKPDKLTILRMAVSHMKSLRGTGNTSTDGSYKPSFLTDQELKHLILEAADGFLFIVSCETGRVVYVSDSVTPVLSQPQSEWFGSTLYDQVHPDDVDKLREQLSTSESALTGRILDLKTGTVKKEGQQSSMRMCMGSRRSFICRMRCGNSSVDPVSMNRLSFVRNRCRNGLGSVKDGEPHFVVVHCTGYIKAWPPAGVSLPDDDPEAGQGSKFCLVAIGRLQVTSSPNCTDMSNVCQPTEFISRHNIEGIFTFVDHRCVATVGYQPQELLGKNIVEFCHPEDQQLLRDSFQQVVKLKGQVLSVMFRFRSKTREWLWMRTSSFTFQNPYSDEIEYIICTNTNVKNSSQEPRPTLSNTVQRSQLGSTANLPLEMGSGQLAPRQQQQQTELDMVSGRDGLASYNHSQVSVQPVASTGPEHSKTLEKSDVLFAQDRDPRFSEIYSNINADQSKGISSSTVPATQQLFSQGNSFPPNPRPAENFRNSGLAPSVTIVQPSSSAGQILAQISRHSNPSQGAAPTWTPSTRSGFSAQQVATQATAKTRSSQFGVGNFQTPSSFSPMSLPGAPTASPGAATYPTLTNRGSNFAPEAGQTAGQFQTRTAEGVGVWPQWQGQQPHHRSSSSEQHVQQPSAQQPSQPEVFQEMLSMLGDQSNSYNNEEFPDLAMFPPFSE

SMILES: Clc1cc2c(cc1Cl)Oc1cc(Cl)c(Cl)cc1O2 [TCDD, 2,3,7,8-tetrachlorodibenzo-p-dioxin]
- spot density, difference TCDD treated (+) minus DMSO treated (-) (Example 1, arnt spike 2 ug): 224497
- spot density, average (Example 1, arnt spike 2 ug, TCDD (+), average of two replicates): 303679
- spot density (Example 1, arnt spike 2 ug, TCDD (+), single replicate): 308831 and 298526
- spot density, difference TCDD treated (+) minus DMSO treated (-) (Example 1, normal protocol, no ARNT added): 49541
- spot density, average (Example 1, normal protocol, no ARNT added, TCDD (+), average of two replicates): 149868
- spot density (Example 1, normal protocol, no ARNT added, TCDD (+), single replicate): 157620 and 142115
- spot density, difference TCDD treated (+) minus DMSO treated (-) (Example 2, 0.5 ug arnt): 129849
- spot density, average (Example 2, 0.5 ug arnt, TCDD (+), average of two replicates): 174210
- spot density (Example 2, 0.5 ug arnt, TCDD (+), single replicate): 184049 and 164371
- spot density, difference TCDD treated (+) minus DMSO treated (-) (Example 2, 2.0 ug arnt): 209747
- spot density, average (Example 2, 2.0 ug arnt, TCDD (+), average of two replicates): 270107
- spot density (Example 2, 2.0 ug arnt, TCDD (+), single replicate): 281912 and 258302
- density, difference TCDD treated (+) minus DMSO treated (-) (Example 3, normal, anti-Ah receptor probe): 77724
- density, average (Example 3, normal, anti-Ah receptor probe, TCDD (+), average of two replicates): 169988
- density (Example 3, normal, probed with anti-Ah receptor/alkaline phosphatase, TCDD (+), single replicate): 177175 and 162801
